# Laboratory results as given in US10100058B2, “Fused heterocyclic compounds as CaM kinase inhibitors” (Gilead Sciences, Inc., priority 2016, dated 2018).
# Target: recombinant CaMKIIδ (Homo sapiens (Human), UniProt Q13557)
# Experiment: CaMKIIδ biochemical assay (HTRF)
# Conditions: 10 pM CaMKIIδ, 110 nM calmodulin, 12 μM ATP, 1 hour; read-out: CAMKIID-HTRF-384V2 (IC50 - nM)
# Method: CaMKIIδ Biochemical Assay
# The biochemical activity of recombinant CaMKIIδ was measured by monitoring the phosphorylation of a target peptide using Homogenous Time Resolved Fluorescence (HTRF) technology from CisBio Bioassays.
row,IC50 [nM],SMILES
1,1.16,"CCN(CC)[C@@H](C)CNC(=O)c1cc(-c2cnn3ccc(-c4cccs4)nc23)nc(N2CCNC2=O)c1 [Example 184, (S)—N-(2-(diethylamino)propyl)-2-(2-oxoimidazolidin-1-yl)-6-(5-(thiophen-2-yl)pyrazolo[1,5-a]pyrimidin-3-yl)isonicotinamide]"
2,0.11,"CCNC(=O)Nc1cc(C(=O)NC[C@H](C)N(CC)CC)cc(-c2cnn3ccc(-c4cccs4)nc23)n1 [Example 185, (S)—N-(2-(diethylamino)propyl)-2-(3-ethylureido)-6-(5-(thiophen-2-yl)pyrazolo[1,5-a]pyrimidin-3-yl)isonicotinamide]"
3,0.23,"CCOC(=O)Nc1cc(C(=O)NC[C@H](C)N(CC)CC)cc(-c2cnn3ccc(-c4cccs4)nc23)n1 [Example 186, (S)-ethyl (4-((2-(diethylamino)propyl)carbamoyl)-6-(5-(thiophen-2-yl)pyrazolo[1,5-a]pyrimidin-3-yl)pyridin-2-yl)carbamate]"
4,0.27,"CCN(CC)[C@@H](C)CNC(=O)c1cc(NC(=O)OC(C)C)nc(-c2cnn3ccc(-c4cccs4)nc23)c1 [Example 187, (S)-isopropyl (4-((2-(diethylamino)propyl)carbamoyl)-6-(5-(thiophen-2-yl)pyrazolo[1,5-a]pyrimidin-3-yl)pyridin-2-yl)carbamate]"
5,0.43,"CCC(=O)Nc1cc(C(=O)NC[C@H](C)N(CC)CC)cc(-c2cnn3ccc(-c4cccs4)nc23)n1 [Example 188, (S)—N-(2-(diethylamino)propyl)-2-propionamido-6-(5-(thiophen-2-yl)pyrazolo[1,5-a]pyrimidin-3-yl)isonicotinamide]"
6,0.45,"CCN(CC)[C@@H](C)CNC(=O)c1cc(NC(=O)C(C)C)nc(-c2cnn3ccc(-c4cccs4)nc23)c1 [Example 189, (S)—N-(2-(diethylamino)propyl)-2-isobutyramido-6-(5-(thiophen-2-yl)pyrazolo[1,5-a]pyrimidin-3-yl)isonicotinamide]"
7,0.16,"CCN(CC)[C@@H](C)CNC(=O)c1cc(NC(=O)C2CC2)nc(-c2cnn3ccc(-c4cccs4)nc23)c1 [Example 190, (S)-2-(cyclopropanecarboxamido)-N-(2-(diethylamino)propyl)-6-(5-(thiophen-2-yl)pyrazolo[1,5-a]pyrimidin-3-yl)isonicotinamide]"
8,0.2,"CCN(CC)[C@@H](C)CNC(=O)c1cc(NCC2(C)COC2)nc(-c2cnn3ccc(-c4cccs4)nc23)c1 [Example 191, (S)—N-(2-(diethylamino)propyl)-2-(((3-methyloxetan-3-yl)methyl)amino)-6-(5-(thiophen-2-yl)pyrazolo[1,5-a]pyrimidin-3-yl)isonicotinamide]"
9,141,"CCN(CC)[C@@H](C)CNC(=O)c1cc(NCC2COC2)nc(-c2cnn3ccc(-c4cccs4)nc23)c1 [Example 192, (S)—N-(2-(diethylamino)propyl)-2-((oxetan-3-ylmethyl)amino)-6-(5-(thiophen-2-yl)pyrazolo[1,5-a]pyrimidin-3-yl)isonicotinamide]"
10,83.2,"CCN(CC)[C@@H](C)CNC(=O)c1cc(NC2COC2)nc(-c2cnn3ccc(-c4cccs4)nc23)c1 [Example 193, (S)—N-(2-(diethylamino)propyl)-2-(oxetan-3-ylamino)-6-(5-(thiophen-2-yl)pyrazolo[1,5-a]pyrimidin-3-yl)isonicotinamide]"
11,0.19,"CCN(CC)[C@@H](C)CNC(=O)c1cc(-c2cnn3ccc(-c4cccs4)nc23)nc(N2CC(NC(=O)c3ncco3)C2)c1 [Example 194, (S)—N-(1-(4-((2-(diethylamino)propyl)carbamoyl)-6-(5-(thiophen-2-yl)pyrazolo[1,5-a]pyrimidin-3-yl)pyridin-2-yl)azetidin-3-yl)oxazole-2-carboxamide]"
12,0.28,"CCN(CC)[C@@H](C)CNC(=O)c1cc(-c2cnn3ccc(-c4cccs4)nc23)nc(N2CC(NC(=O)N(C)C)C2)c1 [Example 195, (S)—N-(2-(diethylamino)propyl)-2-(3-(3,3-dimethylureido)azetidin-1-yl)-6-(5-(thiophen-2-yl)pyrazolo[1,5-a]pyrimidin-3-yl)isonicotinamide]"
13,0.22,"CCN(CC)[C@@H](C)CNC(=O)c1cc(-c2cnn3ccc(-c4cccs4)nc23)nc(N2CC(NC(=O)C3CC3)C2)c1 [Example 196, (S)-2-(3-(cyclopropanecarboxamido)azetidin-1-yl)-N-(2-(diethylamino)propyl)-6-(5-(thiophen-2-yl)pyrazolo[1,5-a]pyrimidin-3-yl)isonicotinamide]"
14,0.09,"CCN(CC)[C@@H](C)CNC(=O)c1cc(-c2cnn3ccc(-c4cccs4)nc23)nc(N2CC(NS(C)(=O)=O)C2)c1 [Example 197, (S)—N-(2-(diethylamino)propyl)-2-(3-(methylsulfonamido)azetidin-1-yl)-6-(5-(thiophen-2-yl)pyrazolo[1,5-a]pyrimidin-3-yl)isonicotinamide]"
15,0.15,"CCN(CC)[C@@H](C)CNC(=O)c1cc(-c2cnn3ccc(-c4cccs4)nc23)nc(N2CC(NC(C)=O)C2)c1 [Example 198, (S)-2-(3-acetamidoazetidin-1-yl)-N-(2-(diethylamino)propyl)-6-(5-(thiophen-2-yl)pyrazolo[1,5-a]pyrimidin-3-yl)isonicotinamide]"
16,0.32,"CCN(CC)[C@@H](C)CNC(=O)c1cc(N[C@H](C)CO)nc(-c2cnn3ccc(-c4cccs4)nc23)c1 [Example 199, N—((S)-2-(diethylamino)propyl)-2-(((R)-1-hydroxypropan-2-yl)amino)-6-(5-(thiophen-2-yl)pyrazolo[1,5-a]pyrimidin-3-yl)isonicotinamide]"
17,0.16,"CCN(CC)[C@@H](C)CNC(=O)c1cc(N[C@@H](C)CO)nc(-c2cnn3ccc(-c4cccs4)nc23)c1 [Example 200, N—((S)-2-(diethylamino)propyl)-2-(((S)-1-hydroxypropan-2-yl)amino)-6-(5-(thiophen-2-yl)pyrazolo[1,5-a]pyrimidin-3-yl)isonicotinamide]"
18,0.11,"CCN(CC)[C@@H](C)CNC(=O)c1cc(NC[C@H](C)O)nc(-c2cnn3ccc(-c4cccs4)nc23)c1 [Example 201, N—((S)-2-(diethylamino)propyl)-2-(((S)-2-hydroxypropyl)amino)-6-(5-(thiophen-2-yl)pyrazolo[1,5-a]pyrimidin-3-yl)isonicotinamide]"
19,0.14,"CCN(CC)[C@@H](C)CNC(=O)c1cc(NC[C@@H](C)O)nc(-c2cnn3ccc(-c4cccs4)nc23)c1 [Example 202, N—((S)-2-(diethylamino)propyl)-2-(((R)-2-hydroxypropyl)amino)-6-(5-(thiophen-2-yl)pyrazolo[1,5-a]pyrimidin-3-yl)isonicotinamide]"
20,0.18,"CCN(CC)[C@@H](C)CNC(=O)c1cc(N[C@H]2CCOC2)nc(-c2cnn3ccc(-c4cccs4)nc23)c1 [Example 203, N—((S)-2-(diethylamino)propyl)-2-(((S)-tetrahydrofuran-3-yl)amino)-6-(5-(thiophen-2-yl)pyrazolo[1,5-a]pyrimidin-3-yl)isonicotinamide]"
21,0.28,"CCN(CC)[C@@H](C)CNC(=O)c1cc(-c2cnn3ccc(-c4cccs4)nc23)nc(N2CCN(C(C)=O)CC2)c1 [Example 204, (S)-2-(4-acetylpiperazin-1-yl)-N-(2-(diethylamino)propyl)-6-(5-(thiophen-2-yl)pyrazolo[1,5-a]pyrimidin-3-yl)isonicotinamide]"
22,0.1,"CCN(CC)[C@@H](C)CNC(=O)c1cc(-c2cnn3ccc(-c4cccs4)nc23)nc(N2CC(NC)C2)c1 [Example 205, (S)—N-(2-(diethylamino)propyl)-2-(3-(methylamino)azetidin-1-yl)-6-(5-(thiophen-2-yl)pyrazolo[1,5-a]pyrimidin-3-yl)isonicotinamide]"
23,0.1,"CCN(CC)[C@@H](C)CNC(=O)c1cc(-c2cnn3ccc(-c4cccs4)nc23)nc(N2CC(N(C)C)C2)c1 [Example 206, (S)—N-(2-(diethylamino)propyl)-2-(3-(dimethylamino)azetidin-1-yl)-6-(5-(thiophen-2-yl)pyrazolo[1,5-a]pyrimidin-3-yl)isonicotinamide]"
24,0.21,"CCN(CC)[C@@H](C)CNC(=O)c1cc(-c2cnn3ccc(-c4cccs4)nc23)nc(N2CCNCC2)c1 [Example 207, (S)—N-(2-(diethylamino)propyl)-2-(piperazin-1-yl)-6-(5-(thiophen-2-yl)pyrazolo[1,5-a]pyrimidin-3-yl)isonicotinamide]"
25,0.07,"CCN(CC)[C@@H](C)CNC(=O)c1cc(-c2cnn3ccc(-c4cccs4)nc23)nc(N2CC(C(N)=O)C2)c1 [Example 208, (S)-2-(3-carbamoylazetidin-1-yl)-N-(2-(diethylamino)propyl)-6-(5-(thiophen-2-yl)pyrazolo[1,5-a]pyrimidin-3-yl)isonicotinamide]"
26,0.17,"CCN(CC)[C@@H](C)CNC(=O)c1cc(-c2cnn3ccc(-c4cccs4)nc23)nc(N2CC[C@H](OC)C2)c1 [Example 209, N—((S)-2-(diethylamino)propyl)-2-((S)-3-methoxypyrrolidin-1-yl)-6-(5-(thiophen-2-yl)pyrazolo[1,5-a]pyrimidin-3-yl)isonicotinamide]"
27,18.2,"CCN(CC)[C@@H](C)CNC(=O)c1cc(-c2cnn3ccc(-c4cccs4)nc23)nc(N2CC(Oc3ccc(F)cc3)C2)c1 [Example 210, (S)—N-(2-(diethylamino)propyl)-2-(3-(4-fluorophenoxy)azetidin-1-yl)-6-(5-(thiophen-2-yl)pyrazolo[1,5-a]pyrimidin-3-yl)isonicotinamide]"
28,0.3,"CCN(CC)[C@@H](C)CNC(=O)c1cc(NCc2cc[nH]n2)nc(-c2cnn3ccc(-c4cccs4)nc23)c1 [Example 212, (S)-2-(((1H-pyrazol-3-yl)methyl)amino)-N-(2-(diethylamino)propyl)-6-(5-(thiophen-2-yl)pyrazolo[1,5-a]pyrimidin-3-yl)isonicotinamide]"
29,0.18,"CCN(CC)[C@@H](C)CNC(=O)c1cc(NC2CC2)nc(-c2cnn3ccc(-c4cccs4)nc23)c1 [Example 213, (S)-2-(cyclopropylamino)-N-(2-(diethylamino)propyl)-6-(5-(thiophen-2-yl)pyrazolo[1,5-a]pyrimidin-3-yl)isonicotinamide]"
